Literature values, collected in patent publication US10799449B2, “Medicinal delivery system and related methods” (JSRNTI, LLC, priority 2006, dated 2020).

Columns and labels:
[1] = in water

Row | Molecule | Solubility [1] [grams/100 grams water] | other results
1 | OC[C@@H](O)[C@@H](O[C@@H]1O[C@H](CO)[C@H](O)[C@H](O)[C@H]1O)[C@H](O)[C@@H](O)CO [Lactitol] | 55 | –
2 | OC[C@@H](O)[C@@H](O[C@H]1O[C@H](CO)[C@@H](O)[C@H](O)[C@H]1O)[C@H](O)[C@@H](O)CO [Maltitol] | 71 | –
3 | OC[C@@H](O)[C@@H](O)[C@H](O)[C@H](O)CO [Mannitol] | 23 | –
4 | CN1CCCC1c1cccnc1 (stereo not drawn) [Nicotine] | – | Available nicotine in an un-ionized state (buffered saliva pH of 9.0): approximately 91%; pKa (weak base): approximately 8.0; Available nicotine in the un-ionized form (without buffer, normal saliva pH of 6.5): 3%
5 | OC[C@@H](O)[C@@H](O)[C@H](O)[C@@H](O)CO [Sorbitol] | 75 | –
6 | OC[C@@H](O)[C@H](O)[C@@H](O)CO [Xylitol] | 70 | –
7 | Isomalt | 38 | –
